# Patent EP3178809A1, “HYBRID MOLECULE WITH STRUCTURAL AND ACTIVITY ELEMENTS OF RESVERATROL AND DIALLYL SULFIDE” (Albert-Ludwigs-Universität Freiburg, priority 2015, dated 2017)
# “Also recorded” adds a separate entry of the source.
# How the values were obtained:
# [1] = test system: humane Magenkarzinomzellen MKN-45; assay: Apoptosis induction in tumour cells (morphological criteria, duplicate assays); assay type: cell-based, human; details: MKN-45, apoptosis
# Procedure: Nach 3 Stunden bei 37 ° C, 5 % CO2 wurden die Prozentsätze apoptotischer Zellen bestimmt. […] Nach 3 Stunden bei 37 ° C, 5 % CO2 wurden die Prozentsätze apoptotischer Zellen bestimmt.
# Die Daten basieren allesamt auf der quantitativen Bestimmung der Apoptose mittels der klassischen morphologischen Kriterien Kernkondensation, Kernfragmentation und Membrane Blebbing nach definierten Inkubationszeiten bei 37°C.
# Die Ansätze erfolgten bei einer Zelldichte von 125 000 Zellen/ml in 96-Loch-Platten mit einem Reaktionsvolumen von 100 µl. Alle Ansätze wurden als Doppelansätze geführt und pro Messpunkt wurden mindestens 200 Zellen morphologisch bewertet. Eine detaillierte Aufstellung der verwendeten Medien, Inhibitoren, Zellen ist in den Arbeiten Scheit and Bauer, 2015; Bauer und Zarkovic, 2014; Bauer et al., 2014; Bauer, 2015 beschrieben.
# Um zu klären, ob das Hybridmolekül aus Struktur- und Wirkungselementen von Resveratrol und Diallyldisulfid in der Lage ist, Apoptose in Tumorzellen zu induzieren, und dabei zu prüfen, ob sich durch die Kombination der Einzelfunktionen in einem Molekül der Synergieeffekt bündeln ließ, wurden steigende Konzentrationen des Hybridmoleküls zu Magenkarzinomzellen der Linie MKN-45 gegeben. Die als Parallelansätze geführten Ansätze wurden sowohl ohne als auch in Anwesenheit von 2 mM des Singulettsauerstofffängers Histidin inkubiert, um zu prüfen, ob der durch das Hybridmolekül ausgelöste Effekt durch Singulettsauerstoff vermittelt wird. Zum Vergleich wurde das gleiche Experiment mit steigenden Konzentrationen DADS durchgeführt, ebenfalls mit und ohne Histidinzugabe. Nach 3,5 Stunden Inkubation wurde der Prozentsatz apoptotischer Zellen bestimmt.
# [2] = target: T1, NOX1 von Magenkarzinomzellen (Homo sapiens, UniProt Q9Y5S8); assay: Stimulation of superoxide anion production (shift of Cu/ZnSOD inhibition curve of 3-AT-reactivated apoptosis signalling); assay type: cell-based; details: 0.9 µM, MKN-45, 100 mM 3-AT plus Cu/ZnSOD, 5,5 Stunden
# T1 construct: endogenous in cells; host or cells: MKN-45
# T1 sequence (Q9Y5S8 1-564): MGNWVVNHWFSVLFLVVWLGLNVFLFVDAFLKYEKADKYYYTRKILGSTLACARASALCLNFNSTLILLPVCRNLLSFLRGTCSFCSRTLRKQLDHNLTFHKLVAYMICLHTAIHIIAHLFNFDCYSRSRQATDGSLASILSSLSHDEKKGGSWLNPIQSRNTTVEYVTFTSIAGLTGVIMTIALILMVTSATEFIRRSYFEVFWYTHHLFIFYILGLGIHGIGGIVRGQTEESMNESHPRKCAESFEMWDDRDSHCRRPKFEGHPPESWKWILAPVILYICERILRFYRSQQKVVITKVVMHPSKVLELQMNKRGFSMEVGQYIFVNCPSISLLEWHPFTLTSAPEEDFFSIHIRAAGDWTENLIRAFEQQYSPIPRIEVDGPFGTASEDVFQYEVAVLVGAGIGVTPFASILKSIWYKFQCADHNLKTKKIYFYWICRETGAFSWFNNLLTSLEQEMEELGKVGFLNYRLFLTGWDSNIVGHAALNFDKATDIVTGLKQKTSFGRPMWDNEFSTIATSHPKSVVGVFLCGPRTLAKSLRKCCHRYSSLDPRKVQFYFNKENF
# T1 sequence (P13498 1-195 partner): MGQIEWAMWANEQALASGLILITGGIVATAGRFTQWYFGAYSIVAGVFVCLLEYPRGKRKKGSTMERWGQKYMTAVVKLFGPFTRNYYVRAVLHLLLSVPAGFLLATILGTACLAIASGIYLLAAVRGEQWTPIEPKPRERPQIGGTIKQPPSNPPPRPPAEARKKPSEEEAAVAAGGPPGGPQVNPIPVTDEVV
# Procedure: MKN-45-Zellen unter Standardbedingungen erhielten zunächst keinen Zusatz (Kontrolle) oder 0.9 µM Resveratrol oder der Resveratrolderivate HT 161, HT 163, HT 182, die durch unterschiedliche Blockierung der drei vorhandenen OH-Gruppen gekennzeichnet sind. Dabei waren beim Derivat HT 161 alle drei OH-Gruppen durch TBS (tert-Butyldimethylsilyl) blockiert, beim Derivat HT 163 die beiden OH-Gruppen in den Positionen 3'und 5'blockiert und beim Derivat HT 182 selektiv nur die OH-Gruppe in der Position 4'blockiert.
# Danach erfolgte die Zugabe von 100 mM 3-AT (Katalasehemmstoff) und der angegebenen Konzentrationen von Cu/ZnSOD. Nach 5,5 Stunden erfolgte die Bestimmung der Prozentsätze apoptotischer Zellen in Doppelansätzen.
# Da 3-AT Superoxidanionen-abhängiges interzelluläres Apoptose-auslösendes Signaling reaktiviert, wird der Prozess durch Cu/Zn-SOD blockiert, wobei sich eine typische Glockenkurve ausbildet. Der biochemische Grund dafür wird in Bauer et al., Carcinogenesis 35: 1582-1591, 2014 dargestellt.
# Die Messung der extrazellulären Superoxidanionenkonzentration von Tumorzellen sowie die Bestrahlungstechnik mit Niedrigdosis-Gammastrahlung wird in der Arbeit Temme and Bauer, 2013 beschrieben. Die Hemmung der NOD wird bei Scheit and Bauer, 2015, beschrieben. Viele Versuchsergebnisse wurden in den Figuren dargestellt. […]
smiles,measurement,setting,value
Oc1ccc(C=Cc2cc(O)cc(O)c2)cc1 [Resveratrol],Synergieeffekt mit Taxol,[1],Synergieeffekt
same,Synergieeffekt mit DADS,"[1]; 3,5 Stunden (Figur 10) or 5,5 Stunden (Figur 15)",konzentrationsabhängigen beachtlichen Synergieeffekt; also recorded: zur Ausprägung eines Synergieeffektes mit DADS befähigt
same,stimulierende Wirkung auf die Superoxidanionensynthese,[2],Rechtsverschiebung der Kurve
